Entries after “also recorded” stand apart in the source; their conditions may differ. Counter-ions that a name gives are not always drawn.
What was measured:
Type in all cases: physicochemical
[1] = Polymorphism screening / solid form stability and conversion; details: for thermodynamic stability / conversion of solid form: polymorphism screening, approximately 3000 crystallization experiments
Protocol: The amorphous form is non-crystalline and hygroscopic. […] In approximately 3000 crystallization experiments performed during polymorphism screenings, no additional polymorphic form was observed. Based on DSC measurements as well as temperature-controlled XRPD, no conversion of the polymorphic form is observable under heating until melting occurs. […] DSC thermograms were recorded using a Mettler-Toledo instrument (DSC820/821e/1; FRS05 sensor). Approximately 2-6 mg of the sample were placed in aluminum pans and sealed with aluminum lids. Lids were automatically pierced prior to heating. Generally, samples under nitrogen were heated at a rate of 10 K/min to a maximum of 250° C.

[2] = Hygroscopicity by dynamic moisture sorption/desorption (DVS); details: 25° C.; for reversible weight gain or loss: between 0% RH and 90% RH; for conversion during dynamic vapor sorption experiments: time scale of standard DVS experiments, 0-90% RH; for hygroscopicity classification: weight increase 0% RH to 90% RH
Protocol: Moisture sorption/desorption data were collected on a DVS-1/DVS-HT/DVS-intrinsic (SMS Surface Measurements Systems) moisture balance system. The sorption/desorption isotherms were measured stepwise in a range of 0% RH (relative humidity) to 90% RH at 25° C. A weight change of <0.002 mg/min was chosen as a criterion to switch to the next level of RH (with a maximum equilibration time of 24 hours, if the weight criterion was not met). The data were corrected for the initial moisture content of the samples; that is, the weight after drying the sample at 0% RH was taken as the zero point. The hygroscopicity of a given substance is characterized by the increase in mass when the RH was raised from 0% RH to 90% RH as given in Table 7. [table]

[3] = Intrinsic dissolution rate (USP <1088>); details: for Intrinsic Dissolution Rate: pellet 0.5 cm^2, 0.05M Acetate Buffer pH = 4.5, 37 C., 100 RPM, UV at 278 nm
Description: For each intrinsic dissolution measurement, a pellet was produced from the crystalline Form A or the amorphous form sample using an applied load of approximately 15 kN into a flat disk (surface area=0.5 cm^2). After compaction, each pellet was checked by XRPD to confirm that no polymorphic transformation had occurred during the pelleting process. [table] Batches of Form A and the amorphous form (from freeze-drying) were used to determine the intrinsic dissolution rate of both solid forms. Intrinsic dissolution allows the characterization of different crystal forms by exposing a constant surface area to the dissolution medium.

[4] = Water solubility; details: at 25° C.
[5] = Storage stability at 25° C/0% RH and 25° C/90% RH; details: 25° C/0% relative humidity (RH) and 25° C/90% RH
[6] = listed as crystalline fumarate salt of Compound I

Compound | conversion in slurry experiment ([1]; 2-propanol/water 88:12, 20° C.) | thermodynamic stability / conversion of solid form [1] | thermodynamic stability / conversion of solid form ([1]; listed as The amorphous form) | reversible weight gain or loss ([2]; listed as the amorphous from) [%] | conversion during dynamic vapor sorption experiments [2] | hygroscopicity classification [2] | hygroscopicity classification ([2]; listed as The amorphous form) | hygroscopicity classification ([2]; listed as the amorphous from) | intrinsic dissolution rate relative to crystalline Form A ([3]; amorphous form vs Form A) | Intrinsic Dissolution Rate [3] [mg*cm−2*min−1] | thermal stability by DSC ([1]; DSC) | thermodynamic stability / conversion of solid form [1, 6] | solubility [4] [µg/mL] | change in assay, purity, moisture and dissolution [5] | reversible weight gain or loss [2] [%] | hygroscopicity classification [2, 6]
O=C(c1ccc(F)c(F)c1Nc1ccc(I)cc1F)N1CC(O)([C@@H]2CCCCN2)C1 [the amorphous form] | converted rapidly into Form A | converts to crystalline Form A | convert to Form A by heating and by solvent mediated phase transition in water | 12.1 | no conversion was observed | hygroscopic | hygroscopic | hygroscopic | approximately 35 times | 2.6996 |  |  |  |  |  | 
O=C(c1ccc(F)c(F)c1Nc1ccc(I)cc1F)N1CC(O)([C@@H]2CCCCN2)C1 [Form A, crystalline fumarate salt of (S)-[3,4-difluoro-2-(2-fluoro-4-iodophenylamino)phenyl] [3-hydroxy-3-(piperidin-2-yl)azetidin-1-yl]-methanone] |  | thermodynamically stable form |  |  | no conversion was observed | non-hygroscopic; also recorded: nonhygroscopic |  |  |  | 0.0756 | stable up to the melting point of 239 °C | thermodynamically stable | 1600 | no change | 0.1 | non-hygroscopic

Reference: patent US11254649B2, “Crystalline fumarate salt of (S)-[3,4-difluoro-2-(2-fluoro-4-iodophenylamino)phenyl] [3-hydroxy-3-(piperidin-2-yl) azetidin-1-yl]-methanone” (Exelixis, Inc., priority 2015, dated 2022)
